Where a name gives a salt, the structure may show the parent alone. Read-outs that look alike come from different tables or passages of the source.
What was measured:
[1] = tested on: Mouse osteoblastic-line cells (MC3T3-El); assay: Mouse Osteoblast-line Cell Proliferation (3H-thymidine); assay type: cell-based; conditions: 0.1% FBS
Procedure: Pharmacology of the Ethenesulfonyl Fluoride Compounds--In Vitro Mouse Osteoblast-line Cell Proliferation
Reagents: Mouse osteoblastic-line cells (MC3T3-El) were plated in Dulbeccos Modified Eagles Medium (DMEM) with 25 mM Hepes Buffer, L-Glutamine, D-Glucose(4.5 gm/1) supplemented with 10% fetal bovine sera, Penicillin (100 units/ml) and Streptomycin ([…]) (Penicillin-Streptomycin liquid) and sodium pyruvate (10 μM final concentration). ^3 H-Thymidine (6.7 Ci/mmole) was diluted in DMEM media without FBS and filter sterilized. An aliquot of this solution was delivered to each culture well to a final concentration of ^3 H-thymidine of 0.4 μCi per well (2 μCi/ml).
Test Preparations: Solutions of the test compound were made on the day before incubation. These compounds were solubilized in either ethanol or DMSO at a concentration of 100 mM containing 0.1% FBS. The solutions were filter sterilized and then sterile serial dilutions were performed with DMEM media containing 0.1% FBS.
Osteoblast line cells were plated into 96 well culture plates, 1600 cells in 100 μL per well in DMEM with 25 mM Hepes Buffer, L-Glutamine, D-Glucose (4.5 gm/L) supplemented with 10% fetal bovine sera, Penicillin (100 units/mL) and Streptomycin (100 μg/mL) and sodium Pyruvate (10 μM final concentration). The media was replaced with DMEM containing no FBS and the cells were then incubated for an additional 24 hours. The following day, test compounds were added and screened at concentrations ranging from 10^-10 to 10^-5 M in the Presence of 0.1% FBS. The cells were then incubated an additional 20 hours. At this time 0.4 μ/Ci of 3H-thymidine was added to each culture well and the cells were incubated an additional 4 hours. The cells were then harvested with a Skatron Cell Harvester onto a glass fiber filter and washed with water, %5 trichloroacetic acid (TCA) and then 95% ethanol. The filters were then processed and counted on the LKB beta plate scintillation counter.

[2] = tested on: Rabbit Isolated Parietal Cells; assay: Inhibition of 14C-aminopyrine accumulation in stimulated rabbit isolated parietal cells; assay type: cell-based; conditions: Oryctolagus cuniculus, 37° C.
Text: Pharmacology of the Ethanesulfonamide Compounds - Rabbit Isolated Parietal Cells
Parietal cells were isolated from the fundic mucosa of rabbit stomachs by a four-stage collagenase digestion Process. The supernatant fraction from the last two stages of this Process contained the individual parietal cells. This cell suspension was centrifuged and reconstituted in a modified Hank's buffer to contain 2-3×10^6 cells/ml. […] The accumulation is stimulated by histamine and is blocked by H2 antagonists. Accumulation of ^14 C-AP is also stimulated by dibutyryl cAMP (dbcAMP). The cells were incubated with 0.5×10^6 cpm ^14 C-AP, with various concentrations of histamine or dbcAMP, […] isobutylmethylxanthine, and test compound added in a 20 μl volume of buffer or dimethylsulfoxide. The flasks were incubated in a shaking water bath at 37° C. Two 0.5 ml aliquots were then taken from each flask and cell pellets were collected by centrifugation. The pellets were solubilized with Protosol (NEN) and radioactivity determined by liquid scintillation spectrometry.
The concentration of compound required to inhibit ^14 C-AP accumulation in the stimulated parietal cell by 50% (IC50) was determined.

Gastric Secretion = assay: Inhibition of Gastric Secretion in Rat (pylorus ligated); assay type: in vivo, rat (male Charles River); conditions: intraduodenal, four hours after pylorus ligation
Procedure: Inhibition of Gastric Secretion in Rat
Male Charles River rats weighing 150-300 grams were deprived of food but not water for 18-24 hours prior to use. Water was withheld during the experiment. The rats were weighed, anesthetized with ether and the pylorus ligated according to the method of Shay, H. et al., Gastroenterol. 26, 906 (1954). Test compounds were suspended in a 0.5% aqueous solution of methylcellulose (15 cps) and administered intraduodenally (i.d.) at the time of ligation. The rats were housed two per cage and sacrificed with CO2 four hours after ligation. The stomachs were removed and contents emptied into a graduated centrifuge tube. The tubes were centrifuged, the volume of gastric juice recorded, and any samples obviously contaminated by feces, food or blood eliminated. A 1 ml aliquot of gastric juice was titrated with 0.1 N NaOH to a pH of 7.0-7.4.
The volume of gastric juice secreted, the acid concentration, and the product of the volume times the concentration, i.e., the total amount of acid secreted, were statistically compared by a student's t-test using the pooled error variance.

[3] = 14C-AP accumulation stimulated by dibutyryl cAMP, read-out: IC50 (dbcAMP)
[4] = 14C-AP accumulation stimulated by histamine, read-out: IC50 (H)

IC50 [2, 3] [nM] | IC50 [2, 4] [nM] | Compound | Mouse Osteoblast-line Cell Proliferation [Expressed as a Percent of Control] ([1]; 0.001 μM) | Mouse Osteoblast-line Cell Proliferation [Expressed as a Percent of Control] ([1]; 0.01 μM) | Mouse Osteoblast-line Cell Proliferation [Expressed as a Percent of Control] ([1]; 0.1 μM) | Mouse Osteoblast-line Cell Proliferation [Expressed as a Percent of Control] ([1]; 1.0 μM) | Mouse Osteoblast-line Cell Proliferation [Expressed as a Percent of Control] ([1]; 10 μM) | % Reduction of Total Acid Output (Gastric Secretion; Dose 40 MPK) [%] | % Reduction of Total Acid Output (Gastric Secretion; Dose 20 MPK) [%]
– | – | O=S(=O)(F)CCNc1ccc(F)cc1 [Example 20, Monohydrochloride] | 133.4% of Control | 111.8% of Control | 110.2% of Control | 116.9% of Control | 112.3% of Control | – | –
310 | 160 | O=S(=O)(CCNc1ccc(Cl)c(C(F)(F)F)c1)NCCCOc1cccc(CN2CCCCC2)c1 [Example 9, 2-[(4-Chloro-3-trifluoromethylphenyl)amino]-N-[3-[3-(piperidinomethyl)phenoxy]propyl]ethanesulfonamide] | – | – | – | – | – | 24.7 | –
860 | 370 | O=S(=O)(CCNc1ccc(Br)cc1)NCCCOc1cccc(CN2CCCCC2)c1 [Example 5] | – | – | – | – | – | – | –
– | – | COc1ccc(CCN(C)CCS(=O)(=O)F)cc1OC [Example 24, N-[2-(Fluorosulfonyl)ethyl]-3,4-dimethoxy-N-methylphenethylamine] | 150.4% of Control | 143.9% of Control | 153.5% of Control | 123.3% of Control | 106.7% of Control | – | –
230 | 280 | CCCCc1ccc(NCCS(=O)(=O)NCCCOc2cccc(CN3CCCCC3)c2)cc1 [Example 10, 2-[(4-Butylphenyl)amino]-N-[3-[3-(piperidinomethyl)phenoxy]propyl]ethanesulfonamide] | – | – | – | – | – | – | 23.3
– | – | CC(C)c1ccc(NCCS(=O)(=O)F)cc1 [Example 27, Hydrate] | 137.2% of Control | 130.0% of Control | 106.9% of Control | 110.8% of Control | 97.7% of Control | – | –
– | – | O=S(=O)(F)CCNc1ccc(C(F)(F)F)cc1 [Example 23] | 108.1% of Control | 97.9% of Control | 107.3% of Control | 120.8% of Control | 111.7% of Control | – | –
– | – | CC(C)(C)c1ccc(NCCS(=O)(=O)F)cc1 [Example 26, Hydrate] | 152.8% of Control | 165.7% of Control | 89.9% of Control | 102.7% of Control | 93.2% of Control | – | –
3700 | 120 | O=[N+]([O-])c1ccc(NCCS(=O)(=O)NCCCOc2cccc(CN3CCCCC3)c2)cc1 [Example 4, 2-[(4-Nitrophenyl)amino]-N-[3-[3-(piperidinomethyl)phenoxy]propyl]ethanesulfonamide] | – | – | – | – | – | 30.8 | –
2000 | 840 | CC(C)Oc1ccc(NCCS(=O)(=O)NCCCOc2cccc(CN3CCCCC3)c2)cc1 [Example 7, 2-[[4-(1-Methylethony)Phenyl]amino]-N-[3-[3-(piperidinomethyl)Phenoxy]propyl]ethanesulfonamide] | – | – | – | – | – | – | –
– | – | COc1ccc(NCCS(=O)(=O)F)cc1OC [Example 22, Monohydrochloride] | 143.6% of Control | 133.6% of Control | 116.4% of Control | 113.5% of Control | 106.7% of Control | – | –
10000 | 1000 | O=S(=O)(CCNc1ccccc1)NCCCOc1cccc(CN2CCCCC2)c1 [Example 6, 2-(Phenylamino)-N-[3-[3-(piperidinomethyl)phenoxy]propyl]ethanesulfonamide] | – | – | – | – | – | – | –
– | – | CCc1ccc(NCCS(=O)(=O)F)cc1 [Example 25, Monohydrochloride] | 139.4% of Control | 123.3% of Control | 100.9% of Control | 110.6% of Control | 90.0% of Control | – | –
– | – | O=S(=O)(F)CCNc1ccccc1 [Example 18, Monohydrochloride] | 132.6% of Control | 125.6% of Control | 108.1% of Control | 93.1% of Control | 95.9% of Control | – | –
– | – | CCOC(=O)c1ccc(NCCS(=O)(=O)F)cc1 [Example 16] | 132.8% of Control | 142.1% of Control | 127.5% of Control | 136.5% of Control | 154.7% of Control | – | –
– | – | CCCCc1ccc(NCCS(=O)(=O)F)cc1 [Example 19, Monohydrochloride] | 109.0% of Control | 143.3% of Control | 159.8% of Control | 97.4% of Control | 115.7% of Control | – | –
– | – | Cc1ccc(NCCS(=O)(=O)F)cc1 [Example 21] | 131.5% of Control | 132.0% of Control | 126.6% of Control | 119.9% of Control | 111.8% of Control | – | –
– | – | COc1ccc(NCCS(=O)(=O)F)cc1 [Example 17, Monohydrochloride] | 165.5% of Control | 148.9% of Control | 129.1% of Control | 115.9% of Control | 108.8% of Control | – | –

Compound | IC50 [2, 3] [nM] | IC50 [2, 4] [nM] | Mouse Osteoblast-line Cell Proliferation [Expressed as a Percent of Control] ([1]; 0.001 μM) | Mouse Osteoblast-line Cell Proliferation [Expressed as a Percent of Control] ([1]; 0.01 μM) | Mouse Osteoblast-line Cell Proliferation [Expressed as a Percent of Control] ([1]; 0.1 μM) | Mouse Osteoblast-line Cell Proliferation [Expressed as a Percent of Control] ([1]; 1.0 μM) | Mouse Osteoblast-line Cell Proliferation [Expressed as a Percent of Control] ([1]; 10 μM) | % Reduction of Total Acid Output (Gastric Secretion; Dose 40 MPK) [%] | % Reduction of Total Acid Output (Gastric Secretion; Dose 20 MPK) [%]
CCCCCOc1ccc(NCCS(=O)(=O)NCCCOc2cccc(CN3CCCCC3)c2)cc1 [Example 8, 2-[(4-Pentoxyphenyl)amino]-N-[3-[3-(piperidinomethyl)phenoxy]propyl]ethanesulfonamide] | 370 | 330 | – | – | – | – | – | – | –

Reference: US5112866A, “Ethanesulfonamide derivatives” (Ortho Pharmaceutical Corporation, priority 1989, dated 1992)
